According to patent US11607557B2, “Devices and systems for treating pain based on light therapy” (Arizona Board of Regents on Behalf of the University of …, priority 2016, dated 2023):
Entries after “also recorded” stand apart in the source; their conditions may differ.

Assays:
[1] = test system: green LED-induced antinociception; assay: Paw withdrawal latency (Hargreaves) after antagonists in green LED exposed naïve rats; type: in vivo, rat
Excerpt: Pathogen-free, adult male and female Sprague-Dawley as well as male Long Evans rats (weight at testing 250-350 g; Harlan-Sprague-Dawley, Indianapolis, Ind.) were housed in a climate-controlled room on a 12-h light/dark cycle and were allowed to have food and water ad libitum. All procedures were approved by the University of Arizona Animal Care and Use Committee and conform to the guidelines for the use of laboratory animals of the National Institutes of Health (publication no, 80-23, 1966). All behavioral experiments were conducted by experimenters blinded to the treatment conditions.
All visible spectrum LED flex strips were purchased from ledsupply.com (VT, USA). The specification of the LED were: (i) #LS-AC60-6-BL, 472 nanometer wavelength (i.e., blue), 8 watts, 120 Volts, 120 degree beam angle; (ii) #LS-AC60-6-GR, 525 nanometer wavelength (i.e., green), 8 watts, 120 Volts, 120 degree beam angle; and (iii) #LS-AC60-66-WH, white, 9.6 watts, 120 Volts, 120 degree beam angle. LED strips were affixed to the outside of clear plastic cages that housed the rats so as to avoid the strips from being chewed. Rats were exposed to the various LED in these cages with full access to food and water in a dark room devoid of any other source of light. Following behavioral assessment, the rats were returned to their cages for additional LED exposure. At the end of daily testing, the rats were returned to their regular animal room where they were exposed to regular room light (regular florescent bulbs). A lux meter (Tondaj LX1010B, Amazon.com) was used to determine the illuminance and luminous emittance of the LED strips.
(§1) The method of Hargreaves et al. was used. Rats were acclimated within Plexiglas enclosures on a clear glass plate maintained at 30° C. A radiant heat source (high-intensity projector lamp) was focused onto the plantar surface of the hind paw. When the paw was withdrawn, a motion detector halted the stimulus and a timer. A maximal cutoff of 33.5 sec was used to prevent tissue damage.
For intrathecal drug administration, rats were chronically implanted with catheters as described by Yaksh and Rudy. Rats were anesthetized with isoflurane and placed in a stereotactic device. The occipital muscles were separated from their occipital insertion and retracted caudally to expose the cisternal membrane at the base of the skull. Polyethylene tubing was passed caudally from the cisterna magna to the level of the lumbar enlargement. Animals were allowed to recover and were examined for evidence of neurologic injury. Animals with evidence of neuromuscular deficits were excluded.
The antinociceptive effects of green LED indicates a possible involvement of endogenous mediators linked to pain, such as opioids and cannabinoids. To test this hypothesis naïve rats exposed to green LED for eight hours daily for five days were administered antagonists and then PWLs were measured 20-30 minutes later.
Thus, to elucidate the role of die adrenergic system, several adrenergic receptors antagonists were tested. […] Additionally, rats exposed to green LED maintained regular grooming behaviors, which is in contrast to diminished grooming observed in stressed rats.

[2] = test system: rostral ventromedial medulla (RVM); assay: Lidocaine microinjection into the RVM, paw withdrawal latency in green LED exposed rats; type: in vivo, rat; conditions: 2% lidocaine microinjected into the RVM of naïve rats exposed to green LED
Procedure: as §1
Rats received a bilateral guide cannula (26 GA, #C235-1.2 mm, Plastics One Inc.) directed to the RVM. The cannula was placed at: −11.0 from bregma, −7.5 mm from the dura and 0.6 mm on either side of the midline. Injections were made by expelling 0.5 μl through an injection cannula protruding 1 mm beyond the tip of the guide. Cannula placement was confirmed with 0.5 μl Evans Blue injected into both sides of the cannula and microscopic examination of medullary sections. Acute single injections into the RVM were performed by inserting an injector (Plastics One Inc) attached to a 2 μl Hamilton syringe and expelling 0.5 μl at the same coordinates.
Neurons within the rostral ventromedial medulla (RVM) have been reported to project to the spinal or medullary dorsal horns to directly or indirectly enhance or diminish nociceptive traffic. As this descending modulatory circuit is “opioid-sensitive”, next the contribution of the RVM in the green LED-induced antinociceptive response was examined.

[3] = calcium indicator, λex 340, 380 nm; cited from earlier work
rats [4] = assay: HIV sensory neuropathy model, thermal hyperalgesia (Hargreaves test); type: in vivo, rat; conditions: intrathecal gp120, 300 ng
Procedure: as §1
(§2) Thermal hyperalgesia and mechanical allodynia are produced by intrathecal administration of the human immunodeficiency virus-1 (HIV-1) envelope glycoprotein, gp120 [60]. Seven days after implantation of an intrathecal catheter, baseline behavioral measurements were obtained and then rats were randomly assigned to two groups. On days 10 and 13, one group of rats were injected i.t. with 300 ng gp120 in a final volume of 20 µl in 0.9% saline while the other group were injected in a similar fashion with 0.9% saline.

rats [5] = assay: HIV sensory neuropathy model, mechanical allodynia (von Frey test); type: in vivo, rat; conditions: intrathecal gp120, 300 ng, compared to pre-gp120 baseline
Procedure: The assessment of tactile allodynia (i.e., a decreased threshold to paw withdrawal after probing with normally innocuous mechanical stimuli) consisted of testing the withdrawal threshold of the paw in response to probing with a series of calibrated fine (von Frey) filaments. Each filament was applied perpendicularly to the plantar surface of the paw of rats held in suspended wire mesh cages. Withdrawal threshold was determined by sequentially increasing and decreasing the stimulus strength (the “up and down” method), and data were analyzed with the nonparametric method of Dixon, as described by Chaplan et al and expressed as the mean withdrawal threshold.
as §2

[6] = alpha- and beta-adrenergic receptor antagonists, i.p. (doses in Table 1), green LED exposed rats
[7] = intrathecal (i.t.), 20 μg, green LED eight hours daily for five days, PWL 20-30 minutes after antagonist
[8] = cannabinoid receptor antagonists, systemic (i.p.) 1 mg/kg, green LED eight hours daily for five days, 1 mg/kg

CC(C)NCC(O)COc1cccc2ccccc12 (centres unmarked) [propranolol]
effect on green LED-induced antinociception (paw withdrawal latency) [1, 6]: failed to prevent or reverse the antinociceptive effect of green LED; also recorded: failed to reverse green LED-induced thermal analgesia

CCN(CC)CC(=O)Nc1c(C)cccc1C [lidocaine]
effect on green LED-induced antinociception (paw withdrawal latency) [2]: prevented the subsequent development of antinociception; also recorded: reversed green LED-induced thermal analgesia

C=CCN1CC[C@]23c4c5ccc(O)c4O[C@H]2C(=O)CC[C@@]3(O)[C@H]1C5 [Naloxone]
effect on green LED-induced antinociception (paw withdrawal latency) [1, 7]: reversed, to baseline levels | effect on green LED-induced antinociception (paw withdrawal latency) ([1]; intrathecal (i.t.), 20 μg, green LED eight hours daily for five days, PWL 20-30 minutes after antagonist, listed as naloxone): reversed green LED-induced thermal analgesia | effect on green LED-induced antinociception (paw withdrawal latency) ([1]; naloxone systemic (printed subcutaneous / 20 mg/kg i.p.), green LED eight hours daily for five days, PWL 20-30 minutes after antagonist, 20 mg/kg): reversed, to baseline levels | effect on green LED-induced antinociception (paw withdrawal latency) ([1]; naloxone systemic (printed subcutaneous / 20 mg/kg i.p.), green LED eight hours daily for five days, PWL 20-30 minutes after antagonist, listed as naloxone, 20 mg/kg): reversed green LED-induced thermal analgesia

COc1ccc(C(=O)c2c(C)n(CCN3CCOCC3)c3cc(I)ccc23)cc1 [AM630]
effect on green LED-induced antinociception (paw withdrawal latency) [1, 8]: unaffected

CC(=O)OCOC(=O)CN(CC(=O)OCOC(C)=O)c1ccc(C)cc1OCCOc1cc2cc(-c3ncc(C(=O)OCOC(C)=O)o3)oc2cc1N(CC(=O)OCOC(C)=O)CC(=O)OCOC(C)=O [Fura-2AM]
Kd [3]: 25 µM

gp120: viral envelope glycoprotein 120 of HIV-1, recombinant HIV-1 IIIB gp120, NIH AIDS Reagent Program
thermal hyperalgesia (paw withdrawal latency) (rats [4]): produced a thermal hyperalgesia | mechanical allodynia (paw withdrawal threshold) (rats [5]): lowered thresholds for paw withdrawals compared to baseline

Cc1c(C(=O)NN2CCCCC2)nn(-c2ccc(Cl)cc2Cl)c1-c1ccc(I)cc1 [AM251]
effect on green LED-induced antinociception (paw withdrawal latency) [1, 8]: reversed the green LED-induced antinociception; also recorded: reversed green LED-induced thermal analgesia

CN1CC[C@]23c4c5ccc(O)c4O[C@H]2[C@@H](O)C=C[C@H]3[C@H]1C5 [morphine]
effect on green LED-induced antinociception (paw withdrawal latency) [1, 7]: reversed the antinociception

Cc1ccc(N(CC2=NCCN2)c2cccc(O)c2)cc1 [Phentolamine]
effect on green LED-induced antinociception (paw withdrawal latency) [1, 6]: failed to prevent or reverse the antinociceptive effect of green LED; also recorded: failed to reverse green LED-induced thermal analgesia

CC(COc1ccccc1)N(CCCl)Cc1ccccc1 (centres unmarked) [Phenoxybenzamine]
effect on green LED-induced antinociception (paw withdrawal latency) [1, 6]: failed to prevent or reverse the antinociceptive effect of green LED; also recorded: failed to reverse green LED-induced thermal analgesia
